From ChEMBL document CHEMBL4715823, “Homogeneous Assay for Target Engagement Utilizing Bioluminescent Thermal Shift” (ACS Med Chem Lett, 2018)
The source made the active and inactive calls. The rule behind the calls is not given here.

Experiments:
[1] = biological target: Mitogen-activated protein kinase 14 (Homo sapiens) (UniProt Q16539); conditions: HeLa, dose 50.0 µM
[2] = biological target: Mitogen-activated protein kinase 14 (Homo sapiens) (UniProt Q16539); conditions: HeLa, dose 50.0 µM; remark: listed apart in the source

Sequence of Mitogen-activated protein kinase 14 (Homo sapiens) (Q16539 whole entry): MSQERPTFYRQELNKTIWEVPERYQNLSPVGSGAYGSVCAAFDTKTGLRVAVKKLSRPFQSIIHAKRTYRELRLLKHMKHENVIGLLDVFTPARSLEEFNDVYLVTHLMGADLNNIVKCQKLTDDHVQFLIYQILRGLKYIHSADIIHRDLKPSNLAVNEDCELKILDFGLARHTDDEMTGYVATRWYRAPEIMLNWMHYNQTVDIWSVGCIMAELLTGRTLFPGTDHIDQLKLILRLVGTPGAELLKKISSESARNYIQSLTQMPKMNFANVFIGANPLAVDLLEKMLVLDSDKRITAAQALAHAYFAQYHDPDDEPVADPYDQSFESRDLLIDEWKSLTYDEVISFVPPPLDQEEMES

SMILES | ΔTm [1] [°C] | Tm [2]
Oc1ccc(-c2nc(-c3ccc(F)cc3)c(-c3ccncc3)[nH]2)cc1 | 7.8 | 
C/C(O)=C(\C#N)C(=O)Nc1cc(Br)ccc1Br | 3.43 | 
Cc1ncc(-c2ccnc(Nc3ccc(S(C)(=O)=O)cc3)n2)n1C(C)C |  | inactive
CC(C)(C)n1nc(-c2ccc(Cl)cc2)c2c(N)ncnc21 | 1.17 | 
